# Reference: patent US10072125B2, “Thiourea-containing dendrimer and thiourea-containing hyperbranched polymer as well as preparation methods thereof and applications thereof” (priority 2014, dated 2018)
# Marks after values point to notes of the source that are not given here.
# Key:
# Test in all cases: Antibacterial performance test, MIC by broth dilution
# Type in all cases: cell-based
# Proteus valgaris = settings: 24 h at 37° C., 5×10^5 CFU/mL
# Description: (§1) To evaluate the antimicrobial activity of each generation of polythiourea dendrimer as described in Example 3, the MICs (minimal inhibitory concentrations) of these dendrimers against different bacteria strains, including Staphylococcus aureus, Enterococcus faecalis, Escherichia coli, Staphylococcus epidermidis, Enterobacter cloacae and Proteus valgaris were determined.
# (§2) The strains stored at −20° C. were inoculated on MH agar plates and incubated overnight at 37° C. The monoclonal colonies were cultured in 3 mL nutrient broth at 37° C. to reach the logarithmic growth period. Then the bacteria were diluted with the MH broth to 0.5 millet turbidity standard and further diluted to 1:100 with MH broth as a stock. The diluted bacteria should be inoculated within 15 min. The polythiourea dendrimers were diluted with sterile water into 200 mg/mL, filtered and sterilized. Gentamicin and amikacin were used as positive controls for Gram-negative and Gram-positive bacteria, respectively. Dispense 100 μL of M-H broth into all wells of 96-well plate, and then pipette 100 μL of M-G1-PEG, M-G2-PEG, M-G3-PEG, M-G4-PEG, antibiotics and MH broth in the first column in the order of labeling. After mixing well with the gun, transfer 100 μL from each well in the first column to the corresponding well in the second column. Repeat the procedure to column 10 and discard […], from column 10. Then 100 μL of bacteria was added to each well. The final bacterial solution concentration per well was 5×10^5 CFU/mL. On the outer periphery of the 96-well plate, 200 μL of the drug-free suspension was added as a sterile control. At the same time subculture the suspension in the agar plate, for assessing the purity of bacteria. The inoculated 96-well plates were shaken on a micro-shaker for 1 min, mixed thoroughly and placed in a wet box. After incubated for 24 h at 37° C., the minimum drug concentration of the clear well was observed by the naked eye as the MIC of the drug. At the same time, it was examined whether the growth of the control well was good and the sterile control well was clear. The plate culture of the suspension was examined to determine whether it was contaminated and whether the MIC value of the control strain was in the control range. This assay was repeated three times.
# Enterobacter cloacae = settings: 24 h at 37° C., 5×10^5 CFU/mL
# Description: as §1, §2
# Escherichia coli = settings: 24 h at 37° C., 5×10^5 CFU/mL
# Description: as §1, §2
# Enterococcus faecalis = settings: 24 h at 37° C., 5×10^5 CFU/mL, read-out: MIC E. faecalis
# Description: as §1, §2
# [1] = test system: Staphylococcus epidermidis; settings: 24 h at 37° C., 5×10^5 CFU/mL, read-out: MIC S. epidermidis
# Description: as §1, §2
# Staphylococcus aureus = settings: 24 h at 37° C., 5×10^5 CFU/mL, read-out: MIC S. aureus
# Description: as §1, §2
Molecule,MIC P. valgaris (Proteus valgaris),MIC E. cloacae (Enterobacter cloacae),MIC E. coli (Escherichia coli),MIC (Enterococcus faecalis) [µg/mL],MIC [1] [µg/mL],MIC (Staphylococcus aureus) [µg/mL]
Gentamicin,2** μg/mL,2** μg/mL,1** μg/mL,–,–,–
NCC[C@H](O)C(=O)N[C@@H]1C[C@H](N)[C@@H](O[C@H]2O[C@H](CN)[C@@H](O)[C@H](O)[C@H]2O)[C@H](O)[C@H]1O[C@H]1O[C@H](CO)[C@@H](O)[C@H](N)[C@H]1O [Amikacin],–,–,–,4,0.5,2
